Assay results published in PubChem BioAssay (NCI).
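Assay format: 96-well plates, 48-hour exposure. TGI: total growth inhibition.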

Assays:
Assay in all cases: NCI tumour cell line growth inhibition, 48 h
SF-268 CNS = test system: SF-268 CNS
SW-620 colon = test system: SW-620 colon
SK-MEL-28 melanoma = test system: SK-MEL-28 melanoma
UACC-257 melanoma = test system: UACC-257 melanoma
KM12 colon = test system: KM12 colon
HS 578T breast = test system: HS 578T breast
K-562 leukemia = test system: K-562 leukemia
MDA-MB-435 = test system: MDA-MB-435
OVCAR-5 ovarian = test system: OVCAR-5 ovarian
COLO 205 colon = test system: COLO 205 colon

Row | SMILES | TGI (SF-268 CNS) | TGI (SW-620 colon) | TGI (SK-MEL-28 melanoma) | TGI (UACC-257 melanoma) | TGI (KM12 colon) | TGI (HS 578T breast) | TGI (K-562 leukemia) | TGI (MDA-MB-435) | TGI (OVCAR-5 ovarian) | TGI (COLO 205 colon)
1 | CC1C=C(NCC2(CO)CCC2)NC(N)=N1 (stereo not given) | > 100 µM | > 100 µM | > 100 µM | > 100 µM | > 100 µM | > 100 µM | > 100 µM | > 100 µM | > 100 µM | > 100 µM
2 | CC(C)(N=NC(C)(C)C1=NCCN1)C1=NCCN1 | > 100 µM | > 100 µM | > 100 µM | > 100 µM | > 100 µM | > 100 µM | > 100 µM | > 100 µM | > 100 µM | > 100 µM
3 | COC(=O)CC1(O)C(C=C(C)C)C(C(=O)OC)C(=O)C(C(=O)OC)C1C(=O)OC (stereo not given) | > 100 µM | > 100 µM | > 100 µM | > 100 µM | > 100 µM | > 100 µM | > 100 µM | > 100 µM | > 100 µM | > 100 µM
4 | O=C(c1ccco1)N1CCN(C(=O)c2ccco2)C1=S | 21.8 µM | 24.7 µM | 22.8 µM | 23.3 µM | 15 µM | > 100 µM | 16.5 µM | 14.1 µM | 39.8 µM | 21.2 µM
5 | CC(=O)O/C(=C(/C#N)C(=O)O)C1C(C(=O)O)C(c2ccccc2[N+](=O)[O-])C=C(c2ccco2)N1c1ccncc1 (stereo not given) | 25.2 µM | 3.57 µM | 23.7 µM | 12 µM | 3.14 µM | 42 µM | > 100 µM | 15.7 µM | 27.4 µM | 7.82 µM
6 | CCCCCC(/C=N/NC(N)=S)C(O)(C(F)(F)F)C(F)(F)F (stereo not given) | > 10 µM | > 10 µM | > 10 µM | > 10 µM | > 10 µM | > 10 µM | > 10 µM | > 10 µM | > 10 µM | > 10 µM
7 | COc1cc(/C=C2\CCc3cc(OC)c(OC)cc3C2=O)cc(OC)c1 | > 100 µM | > 100 µM | > 100 µM | > 100 µM | > 51.7 µM | > 100 µM | > 61 µM | > 100 µM | 99.3 µM | > 52.1 µM
8 | CCO[C@H]1C[C@@H](c2ccccc2)[C@]2(C)C[C@H](C(=O)OC)ON2O1 | > 100 µM | > 100 µM | > 100 µM | > 100 µM | > 100 µM | > 100 µM | > 100 µM | > 100 µM | > 100 µM | > 100 µM
9 | CCOC(=O)c1cc2cc(CSc3ccccc3)ccc2oc1=O | > 100 µM | > 100 µM | > 100 µM | > 100 µM | > 100 µM | > 100 µM | > 100 µM | > 100 µM | > 100 µM | > 100 µM
10 | CSCCCNC(=O)c1csc([C@@H](CSC)NC(=O)CCNC(=O)[C@@H](NC(=O)OCC(Br)(Br)Br)C(C)O)n1 (stereo not given in full) | > 100 µM | > 100 µM | > 100 µM | > 100 µM | > 100 µM | > 100 µM | > 100 µM | > 100 µM | > 100 µM | > 100 µM
11 | O=C(O)c1cc2c(cc1S(=O)(=O)O)C1C(C3C2C2(Cl)C(Cl)=C(Cl)C3(Cl)C2(Cl)Cl)C2(Cl)C(Cl)=C(Cl)C1(Cl)C2(Cl)Cl (stereo not given) | > 100 µM | > 100 µM | > 100 µM | > 100 µM | > 100 µM | > 100 µM | > 100 µM | > 100 µM | 70 µM | > 100 µM
12 | CC(=O)NC1CCC(NC(=O)OC(C)(C)C)C(NC(=O)OC(C)(C)C)C1 (stereo not given) | > 100 µM | > 100 µM | > 100 µM | > 100 µM | > 100 µM | > 100 µM | > 100 µM | > 100 µM | > 100 µM | > 100 µM
13 | Cc1[nH]n(-c2nc(O)c(C)c(=O)[nH]2)c(=O)c1CCO | > 100 µM | > 100 µM | > 100 µM | > 100 µM | > 100 µM | > 100 µM | > 100 µM | > 100 µM | > 100 µM | > 100 µM
14 | CO/N=C1/C(n2[nH]c(=O)n(-c3ccccc3)c2=O)C2C=CC1n1c(=O)n(-c3ccccc3)c(=O)n12 (stereo not given) | > 100 µM | > 100 µM | > 100 µM | > 100 µM | > 100 µM | > 100 µM | > 100 µM | > 100 µM | > 100 µM | > 100 µM
15 | Cc1ccnc2c1c(=O)c1ccccc1n2C | > 100 µM | > 100 µM | > 100 µM | > 100 µM | > 100 µM | 73.5 µM | > 100 µM | > 100 µM | > 100 µM | > 100 µM
16 | O=[N+]([O-])C(=C/C1CCCCC1)/C(=C\C1CCCCC1)[N+](=O)[O-] | 14.7 µM | 17.4 µM | 24.7 µM | 23.5 µM | 29.8 µM | 18.4 µM | > 82 µM | 20.4 µM | 38.8 µM | 9.29 µM
17 | N#Cc1nsnc1-c1nc(-c2nsnc2C#N)nc(-c2nsnc2C#N)n1 | > 100 µM | > 100 µM | > 100 µM | > 100 µM | > 100 µM | 94 µM | > 100 µM | > 100 µM | > 100 µM | > 100 µM
